This note sets out measurements from ChEMBL document CHEMBL4814070 (Eur J Med Chem, 2021).

SMILES strings stand for the structures. Active and inactive are the calls of the source. The calls are words filed in the database; no cut-off is given here.

As usually defined, the inhibition is how much of the control response was suppressed. For orientation: IC50 means the concentration needed to halve the response being measured.

Series [1] has as its target T1, Glutamate NMDA receptor; GRIN1/GRIN2A (Homo sapiens, UniProt Q05586+Q12879). Nature of the series: Inhibition of human GluN1a/GluN2A receptor expressed in HEK293 cells assessed as relative inhibition of glycine/glutamate-induced current at 100 uM measured at +40 mV holding potential by whole-cell patch clamp method. The series is classed as cell-based. A general note: Patch clamp records ionic current or voltage across a cell membrane.

Another series has as its target Acetylcholinesterase (Homo sapiens, UniProt P22303).
Series [2] addresses T2, Cholinesterase (Homo sapiens, UniProt P06276).
Description: Inhibition of human plasmatic BuChE assessed as reduction in cholinesterase activity by Ellman's method
The target in series [3] is T1, Glutamate NMDA receptor; GRIN1/GRIN2A.
Description: Inhibition of human GluN1a/GluN2A receptor expressed in HEK293 cells assessed as inhibition of glycine/glutamate-induced current measured at -60 mV holding potential by whole-cell patch clamp method
Series [4] concerns the target T3, Glutamate NMDA receptor; GRIN1/GRIN2B (Homo sapiens, UniProt Q05586+Q13224).
Description: Inhibition of human GluN1a/GluN2B receptor expressed in HEK293 cells assessed as inhibition of glycine/glutamate-induced current measured at -60 mV holding potential by whole-cell patch clamp method
The target in series [5] is T2, Cholinesterase. Nature of the series: Inhibition of human plasmatic BuChE assessed as reduction in cholinesterase activity at 100 uM by Ellman's method. In general terms: In Ellman's method for cholinesterases, released thiocholine reacts with DTNB.
Series [6] can be described thus: Drug uptake in ICR mouse plasma at 5 mg/kg, ip measured after 15 mins by HPLC-MS analysis. In kind it is ADME, organism-based.
A short description of series [7]: Drug uptake in ICR mouse brain at 5 mg/kg, ip measured after 15 mins by HPLC-MS analysis. The series is classed as ADME, organism-based. Particulars: read-out: Drug uptake.
Series [8] is described as follows: Drug uptake in ICR mouse plasma at 5 mg/kg, ip measured after 60 mins by HPLC-MS analysis. The series is classed as ADME, organism-based.
The nature of series [9]: Drug uptake in ICR mouse brain at 5 mg/kg, ip measured after 60 mins by HPLC-MS analysis. The series is classed as ADME, organism-based. As to conditions: read-out: Drug uptake.
Series [10] concerns the target T1, Glutamate NMDA receptor; GRIN1/GRIN2A. This is another data set of the same source.
Description: Inhibition of human GluN1a/GluN2A receptor expressed in HEK293 cells assessed as relative inhibition of glycine/glutamate-induced current measured at +40 mV holding potential by whole-cell patch clamp method
For series [11], the target named is T3, Glutamate NMDA receptor; GRIN1/GRIN2B. The source holds these as a separate data set.
Description: Inhibition of human GluN1a/GluN2B receptor expressed in HEK293 cells assessed as relative inhibition of glycine/glutamate-induced current measured at +40 mV holding potential by whole-cell patch clamp method
Series [12] is described as follows: Ratio of drug level in brain to plasma in ICR mouse at 5 mg/kg, ip measured after 15 mins by HPLC-MS analysis. The series is classed as ADME, organism-based. Particulars: brain and plasma, read-out: BBR.
Series [13] is described as follows: Toxicity in Wistar rat assessed as prepulse inhibition of acoustic startle response at 1 to 5 mg/kg, ip measured for 10 mins by open field test relative to control. In kind it is organism-based. Particulars: in vivo, dose 1-5 mg/kg.
The subject of series [14] is Rattus norvegicus. Briefly: Effect on spontaneous locomotory activity in Wistar rat at 1 mg/kg, ip measured for 10 mins by open field test. In kind it is functional, organism-based.
For series [15], the system named is Rattus norvegicus. Nature of the series: Reduction in total distance travelled in Wistar rat at 5 mg/kg, ip measured for 10 mins by open field test relative to control. The series is classed as functional, organism-based.

Acetylcholinesterase, sequence (P22303 whole entry): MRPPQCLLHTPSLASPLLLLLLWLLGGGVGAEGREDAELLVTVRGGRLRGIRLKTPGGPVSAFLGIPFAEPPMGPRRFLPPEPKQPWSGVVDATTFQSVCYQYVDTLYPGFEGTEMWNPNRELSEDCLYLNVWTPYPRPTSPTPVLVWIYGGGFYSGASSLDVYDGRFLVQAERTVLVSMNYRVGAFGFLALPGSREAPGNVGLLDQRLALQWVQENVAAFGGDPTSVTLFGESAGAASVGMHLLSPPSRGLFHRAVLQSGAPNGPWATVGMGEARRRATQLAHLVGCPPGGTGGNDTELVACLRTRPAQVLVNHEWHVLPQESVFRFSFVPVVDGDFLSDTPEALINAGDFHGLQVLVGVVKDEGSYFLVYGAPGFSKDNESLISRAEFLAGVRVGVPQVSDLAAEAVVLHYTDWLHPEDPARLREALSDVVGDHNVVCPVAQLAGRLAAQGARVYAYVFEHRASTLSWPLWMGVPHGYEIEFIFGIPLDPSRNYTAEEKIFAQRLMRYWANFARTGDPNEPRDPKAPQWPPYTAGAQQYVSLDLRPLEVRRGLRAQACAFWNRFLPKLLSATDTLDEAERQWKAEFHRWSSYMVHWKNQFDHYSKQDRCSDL
T2 sequence (P06276 whole entry): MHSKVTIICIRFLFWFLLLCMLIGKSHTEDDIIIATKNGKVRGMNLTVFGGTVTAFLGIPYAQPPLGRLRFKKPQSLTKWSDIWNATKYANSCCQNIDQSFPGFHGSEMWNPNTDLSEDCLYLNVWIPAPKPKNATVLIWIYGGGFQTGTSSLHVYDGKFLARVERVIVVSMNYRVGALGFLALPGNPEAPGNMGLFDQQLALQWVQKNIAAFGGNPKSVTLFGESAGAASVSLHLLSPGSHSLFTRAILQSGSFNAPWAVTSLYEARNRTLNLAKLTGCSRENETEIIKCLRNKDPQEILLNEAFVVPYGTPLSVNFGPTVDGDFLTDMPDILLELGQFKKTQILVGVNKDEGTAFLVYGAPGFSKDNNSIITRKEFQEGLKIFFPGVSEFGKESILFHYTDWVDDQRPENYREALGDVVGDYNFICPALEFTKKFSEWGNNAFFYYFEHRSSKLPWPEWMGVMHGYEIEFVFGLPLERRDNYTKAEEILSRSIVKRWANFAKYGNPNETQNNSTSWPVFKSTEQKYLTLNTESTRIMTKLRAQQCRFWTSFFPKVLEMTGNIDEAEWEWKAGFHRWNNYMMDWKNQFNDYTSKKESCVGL
T3 sequence (Q13224 whole entry, looked up, other chains not shown): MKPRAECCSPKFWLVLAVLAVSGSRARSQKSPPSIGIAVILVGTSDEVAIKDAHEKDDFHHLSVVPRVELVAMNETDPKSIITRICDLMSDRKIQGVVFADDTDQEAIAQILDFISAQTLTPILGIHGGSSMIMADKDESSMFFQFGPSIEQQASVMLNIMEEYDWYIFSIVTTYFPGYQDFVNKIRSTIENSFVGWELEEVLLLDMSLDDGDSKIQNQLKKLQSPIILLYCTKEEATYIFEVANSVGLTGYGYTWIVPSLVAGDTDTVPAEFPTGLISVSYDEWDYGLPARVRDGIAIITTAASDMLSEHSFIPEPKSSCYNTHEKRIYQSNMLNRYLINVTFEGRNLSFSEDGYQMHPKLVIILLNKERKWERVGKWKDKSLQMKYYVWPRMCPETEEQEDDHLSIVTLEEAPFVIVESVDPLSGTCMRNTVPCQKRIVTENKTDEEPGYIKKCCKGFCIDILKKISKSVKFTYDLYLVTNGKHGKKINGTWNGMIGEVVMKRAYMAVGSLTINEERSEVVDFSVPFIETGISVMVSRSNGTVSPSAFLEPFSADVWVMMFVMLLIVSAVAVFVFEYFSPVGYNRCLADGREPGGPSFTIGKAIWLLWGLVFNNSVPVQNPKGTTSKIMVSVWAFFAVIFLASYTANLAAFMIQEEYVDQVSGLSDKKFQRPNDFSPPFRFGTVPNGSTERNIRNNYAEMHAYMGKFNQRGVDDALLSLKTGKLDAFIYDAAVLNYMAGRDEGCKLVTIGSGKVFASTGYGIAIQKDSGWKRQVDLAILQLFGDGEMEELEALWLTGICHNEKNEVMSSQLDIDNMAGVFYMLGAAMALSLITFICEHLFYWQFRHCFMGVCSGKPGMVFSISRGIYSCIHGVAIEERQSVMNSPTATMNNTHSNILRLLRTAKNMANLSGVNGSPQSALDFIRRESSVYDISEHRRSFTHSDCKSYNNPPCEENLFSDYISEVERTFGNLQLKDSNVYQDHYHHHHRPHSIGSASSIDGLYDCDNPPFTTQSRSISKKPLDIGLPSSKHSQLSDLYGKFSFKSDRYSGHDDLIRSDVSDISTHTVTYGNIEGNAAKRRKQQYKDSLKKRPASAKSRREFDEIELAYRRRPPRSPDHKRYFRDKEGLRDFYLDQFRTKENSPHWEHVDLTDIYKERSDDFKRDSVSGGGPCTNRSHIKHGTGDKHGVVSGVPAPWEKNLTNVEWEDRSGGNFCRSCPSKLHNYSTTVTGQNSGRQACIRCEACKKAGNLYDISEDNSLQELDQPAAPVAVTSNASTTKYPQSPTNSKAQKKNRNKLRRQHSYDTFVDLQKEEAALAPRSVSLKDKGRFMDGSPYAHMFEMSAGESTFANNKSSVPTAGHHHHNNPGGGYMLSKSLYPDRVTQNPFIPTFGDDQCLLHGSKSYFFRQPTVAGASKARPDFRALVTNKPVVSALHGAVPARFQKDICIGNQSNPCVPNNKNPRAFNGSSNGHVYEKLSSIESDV
Description for Acetylcholinesterase: Inhibition of human recombinant AChE assessed as reduction in cholinesterase activity using acetylthiocholine iodide as substrate by Ellman's method

For the compound `Nc1c2c(nc3ccc(Br)cc13)CCCCC2`, in series [1], the inhibition came to 57.7%. Moreover, the IC50 against Acetylcholinesterase turned out to be 13.8 µM; at Cholinesterase [2], 15.1 µM; in [3], 13.8 µM; in series [4] it was 11.8 µM.
`Nc1c2c(nc3c(Br)cc(Br)cc13)CCC2`: the results for the inhibition (on Cholinesterase [5]; in [1]) were 34% and 55.7%, respectively. Further, the results for the IC50 (on Acetylcholinesterase; in [3]; in [4]) were 15.1 µM, 10.2 µM and 17.1 µM, respectively.
For the compound `Nc1c2c(nc3ccc(Cl)cc13)CCCCC2`, in [1], the inhibition came out at 43%. Also, the IC50 stood at 8.6 µM against Acetylcholinesterase, 10.3 µM against Cholinesterase [2], 20.2 µM in series [3] and 12 µM in series [4].
The corresponding values for `Nc1c2c(nc3ccc(F)cc13)CCC2` are 28.7%, 0.662 µM, 1.91 µM, 28 µM and 30.3 µM.
With `Nc1c2c(nc3c(Cl)cc(Cl)cc13)CCCCC2`, the inhibition in [1] was found to be 38.5%. Further, the IC50 against Acetylcholinesterase is 9.04 µM; against Cholinesterase [2], 23.8 µM; in series [3], 20 µM; in series [4], 37.9 µM.
Consider `Nc1c2c(nc3cccc(Cl)c13)CCC2`, for which the inhibition came out at 6% on Cholinesterase [5] and 24.5% in series [1]. In addition, the values for the IC50 in [3] and in series [4] were 27 µM and 44.9 µM, respectively.
On to `COc1ccc2nc3c(c(N)c2c1)CCCC3.Cl`, for which the figures for the concentration at 0.25 h in [6] and in [7] were 1670 nM and 2320 nM, respectively. The inhibition in [1] was determined as 77.6%. In addition, the figures for the concentration at 1 h in series [8] and in series [9] were 207 nM and 326 nM, respectively. For the same compound, the concentration for half-maximal inhibition (IC50) in series [3] came out at 4.7 µM; in series [4], 7.24 µM; in series [10], 49.3 µM; in series [11] it was 51 µM.
For `Cl.Nc1c2c(nc3ccc(Br)cc13)CCC2`, the Kp at 0.25 h in [12] amounted to 47. Also, the concentration at 0.25 h in [6] amounted to 2520 nM; in [7], 1180 nM. In addition, the Activity result in series [13] is listed as “Non-Toxic”. In series [1], the inhibition was 75.3%. Besides, the concentration at 1 h in series [8] amounted to 154 nM; in series [9] it was 116 nM. Moreover, the outcome with Rattus norvegicus [14] was inactive. Moreover, the outcome in the series on Rattus norvegicus [15] was Active. In addition, the IC50 against Acetylcholinesterase stood at 5.69 µM; at Cholinesterase [2], 16.9 µM; in series [3], 6.12 µM; in series [4], 6.9 µM; in [10], 51.3 µM; in [11], 23 µM.
Regarding `Nc1c2c(nc3c(Br)cc(Br)cc13)CCCCC2`, the inhibition in [1] came to 80.7%. Also, the IC50 against Acetylcholinesterase is 15.1 µM; on Cholinesterase [2] it was 89.9 µM; in series [3], 21.5 µM; in series [4] it was 26.9 µM.
For `Cc1ccc2nc3c(c(N)c2c1)CCCC3`, in that order: 18.5%, 15.5 µM, 13.7 µM, 12.3 µM and 13.2 µM.
For `Nc1c2c(nc3c(Br)cc(Br)cc13)CCCC2`, in that order: 67.7%, 5.18 µM, 32 µM, 15.6 µM and 18.7 µM.
Turning to `Cc1ccc2c(N)c3c(nc2c1)CCCC3.Cl`, the Kp at 0.25 h in [12] stood at 56. Besides, the concentration at 0.25 h in [6] came out at 1300 nM; in series [7], 731 nM. Also, the Activity result in series [13] is given as “Non-Toxic”. Moreover, the inhibition in series [1] is 51.3%. The concentration at 1 h in series [8] was found to be 87 nM; in series [9], 251 nM. Moreover, the outcome in the series on Rattus norvegicus [14] was inactive. Moreover, in the series on Rattus norvegicus [15], the result was Active. In addition, the IC50 against Acetylcholinesterase came to 0.072 µM; against Cholinesterase [2], 2.9 µM; in [3], 17 µM; in series [4], 7.83 µM; in series [10] it was 98.6 µM; in series [11], 41.8 µM.
On to `COc1ccc2nc3c(c(N)c2c1)CCC3`, for which, in [1], the inhibition amounted to 66.1%. Besides, the half-inhibitory concentration (IC50) at Acetylcholinesterase came to 8.22 µM; against Cholinesterase [2] it was 10.6 µM; in series [3] it was 4.16 µM; in [4], 14.6 µM; in series [10], 66.8 µM; in series [11], 88.9 µM.
Turning to `Nc1c2c(nc3ccc(F)cc13)CCCC2`, the inhibition in series [1] worked out at 41.9%. For the same compound, the IC50 is 0.978 µM at Acetylcholinesterase, 0.751 µM on Cholinesterase [2], 15.4 µM in [3] and 21.3 µM in series [4].
Take `Cc1ccc2nc3c(c(N)c2c1)CCC3`: in series [1], the inhibition amounted to 30.8%. Also, the IC50 came out at 10 µM at Acetylcholinesterase, 23.7 µM at Cholinesterase [2], 20.5 µM in series [3] and 19.8 µM in series [4].
On to `Cc1ccc2nc3c(c(N)c2c1)CCCCC3`, for which the inhibition in series [1] stood at 40.1%. Further, the IC50 on Acetylcholinesterase came out at 22.5 µM; against Cholinesterase [2], 10.6 µM; in series [3] it was 27.1 µM; in [4], 16.6 µM.
Regarding `Cl.Nc1c2c(nc3ccc(Br)cc13)CCCC2`, in series [12], the Kp at 0.25 h was determined as 103. Moreover, the concentration at 0.25 h is 1330 nM in [6] and 1380 nM in series [7]. In addition, in [13], the Activity result is listed as “Non-Toxic”. Also, the inhibition in series [1] came to 79.3%. Further, the concentration at 1 h in series [8] was determined as 170 nM; in [9], 218 nM. Moreover, in the series on Rattus norvegicus [14], the outcome was inactive. Besides, in the series with Rattus norvegicus [15], the result was Active. The concentration for half-maximal inhibition (IC50) at Acetylcholinesterase stood at 4.79 µM; against Cholinesterase [2] it was 20.8 µM; in [3], 6.58 µM; in series [4], 7.8 µM; in [10], 45.9 µM; in series [11], 12.8 µM.
Regarding `Cl.Nc1c2c(nc3ccc(Cl)cc13)CCC2`, in series [12], the Kp at 0.25 h is 61. The concentration at 0.25 h is 1660 nM in series [6] and 1000 nM in series [7]. Further, the Activity result in series [13] is given as “Non-Toxic”. In series [1], the inhibition worked out at 56.5%. The values for the concentration at 1 h in [8] and in series [9] were 389 nM and 173 nM, respectively. Further, the result with Rattus norvegicus [14] was inactive. In the series on Rattus norvegicus [15], the result was Active. Besides, the IC50 at Acetylcholinesterase came to 1.58 µM; against Cholinesterase [2], 6.88 µM; in series [3] it was 21 µM; in [4] it was 8.69 µM; in series [10], 84.2 µM; in series [11] it was 27.7 µM.
Take `Nc1c2c(nc3cccc(Cl)c13)CCCC2`: the inhibition in series [1] turned out to be 35%. For the same compound, the concentration for half-maximal inhibition (IC50) at Acetylcholinesterase is 0.0334 µM; against Cholinesterase [2] it was 0.062 µM; in series [3], 19.6 µM; in series [4] it was 23.7 µM.
As for `Cc1cccc2nc3c(c(N)c12)CCCC3`, the inhibition in [1] came out at 40.5%. For the same compound, the IC50 against Acetylcholinesterase was found to be 0.125 µM; on Cholinesterase [2] it was 0.495 µM; in series [3], 18.5 µM; in [4] it was 14.2 µM.
The corresponding values for `Cc1ccc2c(N)c3c(nc2c1)CCCCC3` are 50%, 0.104 µM, 1 µM, 15.2 µM and 9.29 µM.
Take `Cc1ccc2c(N)c3c(nc2c1)CCC3`: in series [1], the inhibition came to 53.6%. The IC50 at Acetylcholinesterase turned out to be 0.347 µM; on Cholinesterase [2], 8.44 µM; in [3], 7.68 µM; in series [4] it was 15.6 µM.
For `Nc1c2c(nc3c(Cl)cc(Cl)cc13)CCCC2`, in [1], the inhibition was found to be 38.2%. The 50% inhibitory concentration (IC50) on Acetylcholinesterase turned out to be 4.34 µM; on Cholinesterase [2] it was 14.8 µM; in series [3], 24 µM; in series [4], 37.1 µM.
As for `COc1ccc2nc3c(c(N)c2c1)CCCCC3`, the inhibition in [1] was 53.6%. Besides, the concentration for half-maximal inhibition (IC50) against Acetylcholinesterase stood at 17.6 µM; against Cholinesterase [2], 4.41 µM; in [3] it was 20 µM; in series [4], 7.67 µM.
Regarding `Nc1c2c(nc3c(Cl)cc(Cl)cc13)CCC2`, in series [1], the inhibition stood at 33.5%. For the same compound, the IC50 was determined as 13.1 µM on Acetylcholinesterase, 17.9 µM against Cholinesterase [2], 14.6 µM in series [3] and 21.4 µM in [4].
In the case of `Cc1cccc2nc3c(c(N)c12)CCCCC3`, the inhibition in [1] was 54.3%. The IC50 against Acetylcholinesterase is 0.255 µM; on Cholinesterase [2] it was 0.107 µM; in series [3], 12.6 µM; in series [4], 17.4 µM.
With `Nc1c2c(nc3ccc(F)cc13)CCCCC2`, the inhibition in series [1] worked out at 38.5%. Also, the IC50 against Acetylcholinesterase amounted to 0.624 µM; at Cholinesterase [2] it was 0.569 µM; in [3], 14.5 µM; in series [4] it was 19.8 µM.
In the case of `Nc1c2c(nc3ccc(Cl)cc13)CCCC2`, the inhibition in [1] amounted to 47.5%. Besides, the IC50 against Acetylcholinesterase amounted to 1.94 µM; on Cholinesterase [2], 6.72 µM; in series [3], 14.8 µM; in series [4], 9.82 µM.
Take `Cc1cccc2nc3c(c(N)c12)CCC3`: the inhibition in series [1] turned out to be 22%. The half-inhibitory concentration (IC50) at Acetylcholinesterase is 0.415 µM; against Cholinesterase [2], 0.471 µM; in series [3], 21.3 µM; in series [4], 16.6 µM.
